Broadly, the Km is the substrate concentration at which the rate is half of its maximum.

The subject of the assay is T1, TmXdhA.
T1 construct: native full gene from cDNA (578 residues, GMC dehydrogenase domain only, no cytochrome or CBM1); ORF start MQTASKL by primer; SEC-purified, contaminated with an A. niger hydrolase (A0A370CB09)
The assay can be described thus: spectrophotometric reduction of […],4-benzoquinone at […] nm, Michaelis-Menten fit. The conditions noted are these: 1 mM 1,4-benzoquinone, 50 mM ammonium acetate pH 5.5, 30 °C. Type of assay: biochemical, Thermothelomyces myriococcoides.
Turning to `OC[C@H]1O[C@@H](O[C@H]2[C@H](O)[C@@H](O)C(O)O[C@@H]2CO)[C@H](O)[C@@H](O)[C@@H]1O` (stereo partly drawn) [C2, Cellobiose], the Km came out at 360 ± 40 µM.
In the case of `OC[C@H]1O[C@@H](O[C@H]2[C@H](O)[C@@H](O)[C@H](O[C@H]3[C@H](O)[C@@H](O)C(O)O[C@@H]3CO)O[C@@H]2CO)[C@H](O)[C@@H](O)[C@@H]1O` (stereo partly drawn) [C3, Cellotriose], the Km came out at 430 ± 40 µM.
Take `OC[C@H]1O[C@@H](O[C@H]2[C@H](O)[C@@H](O)[C@H](O[C@H]3[C@H](O)[C@@H](O)[C@H](O[C@H]4[C@H](O)[C@@H](O)C(O)O[C@@H]4CO)O[C@@H]3CO)O[C@@H]2CO)[C@H](O)[C@@H](O)[C@@H]1O` (stereo partly drawn) [C4, Cellotetraose]: the Km was found to be 530 ± 40 µM.
For `OC1OC[C@@H](O[C@@H]2OC[C@@H](O)[C@H](O)[C@H]2O)[C@H](O)[C@H]1O` (stereo partly drawn) [X2, Xylobiose] the value was 160 ± 10 µM; for `OC1OC[C@@H](O[C@@H]2OC[C@@H](O[C@@H]3OC[C@@H](O)[C@H](O)[C@H]3O)[C@H](O)[C@H]2O)[C@H](O)[C@H]1O` (stereo partly drawn) [X3, Xylotriose], 110 ± 10 µM; for `OC1OC[C@@H](O[C@@H]2OC[C@@H](O[C@@H]3OC[C@@H](O[C@@H]4OC[C@@H](O)[C@H](O)[C@H]4O)[C@H](O)[C@H]3O)[C@H](O)[C@H]2O)[C@H](O)[C@H]1O` (stereo partly drawn) [X4, Xylotetraose], 130 ± 10 µM.

Source of the values: paper PMC9730589, “Characterization of a novel AA3_1 xylooligosaccharide dehydrogenase from Thermothelomyces myriococcoides CBS 398.93” (Biotechnology for Biofuels and Bioproducts, 2022).
